Measured values reported in US20100190805A1, “PREPARATION FOR THE TREATMENT OF EQUINE LAMINITIS” (BOEHRINGER INGELHEIM VETMEDICA GMBH, priority 2007, published 2010).

Tests used:
[1] = horses, cited from earlier work
[2] = system: horses suffering from acute laminitis; assay: Treatment of horses suffering from laminitis with allopurinol (case reports); assay type: in vivo, horse; conditions: oral allopurinol 1 to 50 mg/kg of body weight
Excerpt: Thus there are also positive effects on the general condition. […] Only by treating with allopurinol is it possible to carry out this treatment as horses suffering acute pain cannot be fitted with supports.

Oc1ncnc2[nH]ncc12 [allopurinol]
bioavailability after oral administration ([1]; oral administration): 14.3%
sum of the areas under the concentration/time curves of allopurinol and oxypurinol after oral administration of allopurinol ([1]; oral versus intravenous allopurinol): identical to that of allopurinol administered intravenously
appetite / general condition [2]: appetite returns
inflammation [2]: decline after three days' treatment
lameness [2]: reduced
pain [2]: decline after three days' treatment
time until horses can be fitted with an orthopaedic hoof support ([2]; time after the start of treatment): roughly one week after the start of treatment
